From PMC6920997, “Total Phenolic and Flavonoid Content and Biological Activities of Extracts and Isolated Compounds of Cytisus villosus Pourr” (Biomolecules, 2019) come the findings set out here.

In general, IC50 refers to the concentration that inhibits the measured activity by half.

Each structure is given as a SMILES string. ≈ marks a conversion by molar mass, not a printed value.

The subject of data set [1] is iNOS. As to the kind of experiment: Inhibition of iNOS (intracellular NO production) in RAW 264.7 macrophages. It counts as cell-based. The conditions noted are these: Mus musculus, RAW264.7; RAW 264.7 cells; NA = no activity at 25 µg/mL (pure compounds) or 100 µg/mL (extracts). As to the method: The extracts and isolated compounds of C. villosus were evaluated in terms of their interaction with cellular targets related to inflammation and metabolic disorders, such as iNOS and NF-κB. The inhibition of intracellular NO production as a result of iNOS activity was assayed in mouse macrophages (RAW 264.7cells). Cytotoxicity of test samples to macrophages was also determined in parallel to check if the inhibition of iNOS was due to cytotoxic effects.

Data set [2] relates to NF-κB. As to the kind of experiment: Reporter gene assay for the inhibition of NF-κB. It counts as cell-based. The conditions noted are these: PMA-treated cells, luciferase reporter; NA = no activity at 25 µg/mL (pure compounds) or 100 µg/mL (extracts); read-out: Inhibition of NF-kB IC50. As to the method: Reporter gene assay for the inhibition of NF-κB Activity was performed as described earlier. In brief, cells transfected with NF-κB luciferase plasmid construct were plated in 96-well plates at a density of 1.25 × 10^5 cells/well. After 24 h, cells were treated with the test compounds and, after incubating for 30 min, phorbol 12-myristate 13-acetate (PMA) (Sigma-Aldrich, Burlington MA, USA) (70 ng/mL) was added and further incubated for 6−8 h. Luciferase activity was measured as described above. Percent decrease in luciferase activity was calculated relative to the vehicle control. Parthenolide (Sigma-Aldrich, Burlington MA, USA) was used as a positive control.
(Reporter assays use an easily measured gene product as a stand-in for the process of interest.)

The test system of data set [3] is Candida albicans. Description: Antifungal assay C. albicans. It counts as cell-based. The conditions noted are these: pure compounds. The method, then:
(§1) Extracts and pure compounds were tested for their antimicrobial activity against Staphylococcus aureus, methicillin-resistant S. aureus (MRSA), Escherichia coli, Pseudomonas aeruginosa, and Mycobacterium intracellulare. The antifungal activities were evaluated against a panel of pathogenic fungi, including Candida albicans, C. glabrata, C. krusei, Aspergillus fumigatus, and Cryptococcus neoformans, associated with opportunistic infections.

The test system of data set [4] is Cryptococcus neoformans. As to the kind of experiment: Antifungal assay C. neoformans. It counts as cell-based. To be noted: pure compounds. As to the method: as §1
Data set [5] relates to Staphylococcus aureus. As to the kind of experiment: Antibacterial assay S. aureus. It counts as cell-based. The conditions noted are these: pure compounds. The method, then: as §1
Data set [6] concerns Escherichia coli. Description: Antibacterial assay E. coli. It counts as cell-based. To be noted: pure compounds. As to the method: as §1
For data set [7], the system named is Pseudomonas aeruginosa. As to the kind of experiment: Antibacterial assay P. aeruginosa. It counts as cell-based. The conditions noted are these: pure compounds. As to the method: as §1
The subject of data set [8] is P. falciparum (D6 Clone). Description: Antimalarial assay, chloroquine-sensitive D6 clone. It counts as cell-based, Plasmodium falciparum. The conditions noted are these: selectivity index = IC50 for cytotoxicity/IC50 for antimalarial activity. The source says: (§2) The in vitro antileishmanial and antitrypanosomal assays were done on cell cultures of L. donovani promastigotes, axenic amastigotes, THP1-amastigotes, and Trypanosoma brucei trypomastigotes by Alamar Blue assays. The conditions for seeding the THP1 cells, exposure to the test samples, and evaluation of cytotoxicity were the same as described in parasite-rescue and transformation assay. IC50 and IC90 values were computed from the dose response curves using XLfit software (XLfit 5.3.1, IDBS analytical, Boston MA, USA). DFMO (difluoromethylornithine) was used as the positive control. The antiprotozoal activity of C. villosus extracts and isolated compounds were evaluated in vitro against L. donovani promastigotes, axenic amastigotes, and intracellular amastigotes in THP1 cells. The extracts and some isolated compounds were also evaluated against T. brucei trypomastigote forms. All the extracts and compounds were simultaneously tested against THP1 cell for determination of general cytotoxicity. The extracts and isolated compounds were also evaluated for their antimalarial activity against chloroquine-sensitive (D6, Sierra Leone) and chloroquine-resistant strains (W2, Indochina) strains of Plasmodium falciparum. Furthermore, they were tested for cytotoxicity against the Vero cell line.

The subject of data set [9] is P. falciparum (W2 Clone). As to the kind of experiment: Antimalarial assay, chloroquine-resistant W2 clone. It counts as cell-based, Plasmodium falciparum. To be noted: selectivity index = IC50 for cytotoxicity/IC50 for antimalarial activity.
Excerpt: as §2

A short description of data set [10]: Cytotoxicity against Vero cell line (antimalarial counterscreen). The conditions noted are these: African green monkey. It counts as cell-based.
Excerpt: as §2
In general terms: A counterscreen serves to expose hits that act by an unwanted route or on another target.

The target of data set [11] is δ opioid receptor (Homo sapiens, UniProt P41143). As to the kind of experiment: Radioligand displacement δ opioid receptor. It counts as binding. Background: In a radioligand displacement assay an active substance lowers the binding of a labelled ligand.
Data set [12] deals with κ opioid receptor (Homo sapiens, UniProt P41145). It counts as binding.
The target of data set [13] is μ opioid receptor (Homo sapiens, UniProt P35372). It counts as binding.
Data set [14] is described as follows: Cytotoxicity assay (neutral red) SK-MEL. To be noted: human, SK-MEL cells, NA = No activity at 100 μM. It counts as cell-based. The method, then: (§3) Each assay was performed in 96-well tissue culture-treated microplates. […] All cell lines were obtained from the American Type Culture Collection (ATCC, Rockville, MD, USA). Each assay was performed in 96-well tissue culture-treated microplates. Cells were seeded at a density of 25,000 cells/well and incubated for 24 h. Samples at different concentrations were added and cells were again incubated for 48 h. At the end of incubation, the cell viability was determined using neutral red dye according to a modification of the procedure of Borenfreund et al.. IC50 values were determined from dose−response curves of percent growth inhibition against test concentrations. Doxorubicin was used as a positive control, while DMSO was used as the negative (vehicle) control.

Data set [15] is described as follows: Cytotoxicity assay (neutral red) KB. It counts as cell-based. To be noted: human, KB cells, NA = No activity at 100 μM. As to the method:
as §3

The nature of data set [16]: Cytotoxicity assay (neutral red) BT-549. It counts as cell-based. To be noted: human, BT-549 cells, NA = No activity at 100 μM. The method, then: as §3
Data set [17] is described as follows: Cytotoxicity assay (neutral red) SK-OV-3. To be noted: human, SK-OV-3 cells, NA = No activity at 100 μM. It counts as cell-based. As to the method: as §3
Data set [18] can be described thus: Cytotoxicity assay (neutral red) LLC-PK1. It counts as cell-based. To be noted: pig, LLC-PK1 cells (noncancerous kidney cells), NC = Not cytotoxic. As to the method: as §3

Sequence of δ opioid receptor (P41143 whole entry): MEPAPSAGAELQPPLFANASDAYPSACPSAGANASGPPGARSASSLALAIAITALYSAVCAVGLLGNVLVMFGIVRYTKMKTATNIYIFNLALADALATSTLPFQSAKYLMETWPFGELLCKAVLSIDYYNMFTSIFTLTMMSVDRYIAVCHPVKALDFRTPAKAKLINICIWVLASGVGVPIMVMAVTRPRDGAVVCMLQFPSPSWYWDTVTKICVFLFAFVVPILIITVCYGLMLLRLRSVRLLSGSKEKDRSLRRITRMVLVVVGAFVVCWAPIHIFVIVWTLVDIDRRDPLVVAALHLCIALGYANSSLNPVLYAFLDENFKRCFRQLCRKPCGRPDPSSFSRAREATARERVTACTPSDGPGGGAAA
Sequence of κ opioid receptor (P41145 whole entry): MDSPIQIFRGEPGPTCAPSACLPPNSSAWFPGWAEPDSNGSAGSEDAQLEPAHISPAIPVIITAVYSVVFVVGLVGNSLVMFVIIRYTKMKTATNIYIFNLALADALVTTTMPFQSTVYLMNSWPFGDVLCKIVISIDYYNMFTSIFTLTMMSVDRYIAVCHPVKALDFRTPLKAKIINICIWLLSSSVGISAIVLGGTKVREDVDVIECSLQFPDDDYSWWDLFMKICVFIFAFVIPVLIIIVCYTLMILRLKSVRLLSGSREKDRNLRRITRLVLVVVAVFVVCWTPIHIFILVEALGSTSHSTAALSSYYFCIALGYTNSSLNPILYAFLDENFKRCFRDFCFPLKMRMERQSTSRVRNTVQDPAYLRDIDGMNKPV
Sequence of μ opioid receptor (P35372 whole entry): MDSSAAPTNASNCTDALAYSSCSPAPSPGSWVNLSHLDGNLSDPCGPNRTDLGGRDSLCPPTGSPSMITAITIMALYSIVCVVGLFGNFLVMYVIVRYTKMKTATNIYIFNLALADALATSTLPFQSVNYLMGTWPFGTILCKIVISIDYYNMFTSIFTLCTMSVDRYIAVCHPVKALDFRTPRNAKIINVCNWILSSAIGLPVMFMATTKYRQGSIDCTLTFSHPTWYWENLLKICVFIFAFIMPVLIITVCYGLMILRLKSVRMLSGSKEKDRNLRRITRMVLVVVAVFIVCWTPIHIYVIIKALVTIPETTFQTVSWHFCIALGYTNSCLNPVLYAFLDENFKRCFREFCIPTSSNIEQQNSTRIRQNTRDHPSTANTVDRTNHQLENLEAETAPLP

In the case of `O=c1cc(-c2ccccc2)oc2cc(O)cc(O)c12` [Compound 2, chrysin], the IC50 was greater than 25 µg/mL in data set [1]; 38 µg/mL (≈ 149 µM) in data set [2]; greater than 20 µg/mL in data set [3]; greater than 20 µg/mL in data set [4]; greater than 20 µg/mL in data set [5]; greater than 20 µg/mL in data set [6]. In addition, the IC50 in [7] was greater than 20 µg/mL; in data set [10], greater than 4.76 µg/mL. The “SI (first SI column of Table 7, presumably D6)” value in data set [8] amounted to 1. Moreover, the “SI (second SI column of Table 7, presumably W2)” value in data set [9] stood at 1. The “Opioid Receptors (%) δ radioligand displacement” value in data set [11] is reported as 8.7%. The “Opioid Receptors (%) κ radioligand displacement” value in [12] stood at 12.8%. In data set [13], the “Opioid Receptors (%) μ radioligand displacement” value amounted to 12.2%.

With `COc1cccc2c1C(=O)c1c(O)c3c(c(O)c1C2=O)C[C@@](O)(C(=O)CO)C[C@@H]3O[C@H]1C[C@H](N)[C@H](O)[C@H](C)O1` [doxorubicin, Doxorubicin], the IC50 at 48 h in data set [14] was 0.8 µg/mL (≈ 1.47 µM); in data set [15], 1.3 µg/mL (≈ 2.39 µM); in data set [16], 0.9 µg/mL (≈ 1.66 µM); in data set [17], 2 µg/mL (≈ 3.68 µM); in data set [18] it was 1.2 µg/mL (≈ 2.21 µM).
